{"source": "patent US8071551B2", "about": "“Methods and compositions for treating diabetes” (BioHolding, Inc., priority 1999, dated 2011)", "key": {"[1]": {"system": "RCG Neuron (rat cerebral granule) cells", "assay": "Apoptosis induced by depletion of serum in RCG neuron cells (Hoechst 33258 staining, fluorescence microscope)", "assay_type": "cell-based", "conditions": "BME without serum, 10 hours, Hoechst dye 33258", "method": "RCG neuronal cells are seeded into cell culture dishes in 400 μl cell culture medium (Eagle's basal medium, BME) containing 10% (v/v) FBS. At day two the now conditioned medium is removed and the cells are treated for 10 hours as follows:\nThen the medium is replaced with 4% (w/v) paraformaldehyde, incubated for 15 minutes at room temperature, and the cells stained with Hoechst dye 33258 (8 μg/ml) for 15 minutes at room temperature. The apoptosis in the cells is evaluated using a fluorescence microscope by an evaluator blinded to the method of treatment."}, "[2]": {"system": "Primary rat brain granule cells", "assay": "Apoptosis associated with serum depletion in primary rat brain granule cells", "assay_type": "cell-based", "conditions": "α1-antitrypsin 3.0 mg/ml, one hour pretreatment, medium devoid of fetal bovine serum, 24 hours of culture", "method": "Primary rat brain granule cells are pretreated for one hour in the absence or presence of α1-antitrypsin (3.0 mg/ml), followed by replacement of the cell culture medium with either control medium containing 10% (vol/vol) fetal bovine serum, medium devoid of fetal bovine serum, or medium devoid of fetal bovine serum but containing α1-antitrypsin."}}, "data": [{"molecule": "Cc1cccc(Cc2nnc(C(=O)[C@@H](NC(=O)[C@@H]3CCCN3C(=O)[C@@H](NC(=O)OCc3ccccc3)C(C)C)C(C)C)o2)c1", "note": "[CE-2072, benzyloxcarbonyl-L-valyl-N-[1-(2-[5-(3-methylbenzyl)-1,3,4-oxadiazolyl]carbonyl)-2-(S)-Methylpropyl]-L-prolinamide, reference compound]", "values": [{"measurement": "apoptosis induced by depletion of serum", "setting": "[1]; CE-2072 60 μM in DMSO", "value": "blocked"}]}, {"molecule": "lyophilized α1-antitrypsin: lyophilized preparation of the serine protease inhibitor α1-antitrypsin", "values": [{"measurement": "apoptosis induced by depletion of serum", "setting": "[1]; lyophilized AAT 50 μM", "value": "blocked"}]}, {"molecule": "α1-Antitrypsin: serine protease inhibitor α1-antitrypsin", "values": [{"measurement": "apoptosis associated with serum depletion", "setting": "[2]", "value": "completely reverses"}]}]}
